Data: publication PMC7763114, “Synthesis and pharmacological effects of novel benzenesulfonamides carrying benzamide moiety as carbonic anhydrase and acetylcholinesterase inhibitors” (Turkish Journal of Chemistry, 2020)
Values joined by “and” are separate entries in the source; they are usually repeats but may differ in a detail not shown here. Equal entries are not always repeated.

Key:
Type in all cases: biochemical
hCA II = hCA II (Homo sapiens, UniProt P00918); assay: biochemical; conditions: for Ki: Lineweaver–Burk plots, three concentrations
Method: (§1) CA isoenzymes (CA I and CA II) were purified using a Sepharose-4B-L tyrosine-sulphanilamide affinity chromatography. Activities of CA isoenzymes were determined according to method by Verpoorte et al.. […] The experimental procedure was given in detail in our previous papers. SSpectrophotometry-based Ellman’s method was used to test the compounds’ AChE inhibitory effects. Acetylthiocholine iodide (AChI) was used as a substrate of the reaction. 5,5-dithiobis(2-nitro-benzoic acid) (DTNB) was used for the determination of the AChE activities. An activity (%)-[Compound] graph was drawn to calculate the inhibition effects of the compounds on CAs and AChE. The IC50 values were obtained from activity (%) versus compounds plots. Three different concentrations were used to calculate Ki values. The Lineweaver–Burk plots were drawn, and calculations were realized as described.

hCA I = hCA I (Homo sapiens, UniProt P00915); assay: biochemical; conditions: for Ki: Lineweaver–Burk plots, three concentrations
hCA I, sequence (P00915 whole entry): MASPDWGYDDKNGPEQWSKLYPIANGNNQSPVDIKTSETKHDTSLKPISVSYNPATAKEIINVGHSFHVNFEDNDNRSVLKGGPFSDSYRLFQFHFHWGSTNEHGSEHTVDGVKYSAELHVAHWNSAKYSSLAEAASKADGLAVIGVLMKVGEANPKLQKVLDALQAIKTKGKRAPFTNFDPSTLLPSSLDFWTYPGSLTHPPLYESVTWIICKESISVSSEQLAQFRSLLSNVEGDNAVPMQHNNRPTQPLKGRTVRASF
Method: as §1

AChE = AChE (Electrophorus electricus, UniProt O42275); assay: AChE inhibition (Ellman's method); conditions: in terms of Ki value
AChE, sequence (O42275 24-633): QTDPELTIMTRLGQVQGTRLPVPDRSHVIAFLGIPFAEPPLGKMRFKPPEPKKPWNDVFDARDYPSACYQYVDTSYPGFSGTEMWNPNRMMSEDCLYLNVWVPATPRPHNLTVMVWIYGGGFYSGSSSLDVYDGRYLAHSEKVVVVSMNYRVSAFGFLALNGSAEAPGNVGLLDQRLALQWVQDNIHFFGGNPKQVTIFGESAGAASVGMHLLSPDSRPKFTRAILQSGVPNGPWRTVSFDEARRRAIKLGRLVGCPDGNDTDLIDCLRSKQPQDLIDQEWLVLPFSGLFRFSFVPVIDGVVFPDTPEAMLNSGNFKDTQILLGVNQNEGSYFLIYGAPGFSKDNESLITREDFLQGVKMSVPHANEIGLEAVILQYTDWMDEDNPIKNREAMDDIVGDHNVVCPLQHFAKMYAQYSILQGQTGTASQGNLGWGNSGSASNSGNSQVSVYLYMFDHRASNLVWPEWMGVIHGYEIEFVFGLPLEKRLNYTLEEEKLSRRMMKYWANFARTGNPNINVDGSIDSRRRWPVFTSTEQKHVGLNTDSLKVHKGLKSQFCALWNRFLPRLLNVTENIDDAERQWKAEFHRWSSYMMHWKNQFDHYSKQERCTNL
Method: as §1

COc1ccc(/C=C(\NC(=O)c2ccccc2)C(=O)Nc2ccc(S(=O)(=O)NC(C)=O)cc2)cc1 [3a]
IC50 (hCA II): 20.4 nM
Ki (hCA II): 18.7 ± 1.59 nM
times more potent than AZA toward hCA II (hCA II; based on Ki values): 1.2 ×
IC50 (hCA I): 27.7 nM
Ki (hCA I): 17.6 ± 4.72 nM
times more potent than AZA toward hCA I (hCA I; based on Ki values): 1.7 ×

COc1ccc(/C=C(\NC(=O)c2ccccc2)C(=O)Nc2ccc(S(=O)(=O)NC(=N)N)cc2)cc1 [3b]
IC50 (hCA II): 24.8 nM
Ki (hCA II): 12.6 ± 2.54 nM
times more potent than AZA toward hCA II (hCA II; based on Ki values): 1.8 ×
IC50 (hCA I): 19.8 nM
Ki (hCA I): 29.7 ± 3.18 nM

COc1ccc(/C=C(\NC(=O)c2ccccc2)C(=O)Nc2ccc(S(N)(=O)=O)cc2)cc1 [3c]
IC50 (hCA II): 30.1 nM
Ki (hCA II): 10.7 ± 0.98 nM
times more potent than AZA toward hCA II (hCA II; based on Ki values): 2.1 × and 2 ×
times more potent than compound 2 on hCA II (hCA II; based on Ki values): 5.8 ×
IC50 (hCA I): 20.4 nM
Ki (hCA I): 6.33 ± 0.51 nM
times more potent than AZA toward hCA I (hCA I; based on Ki values): 4.8 ×

COc1ccc(/C=C(\NC(=O)c2ccccc2)C(=O)Nc2ccc(S(=O)(=O)Nc3nccs3)cc2)cc1 [3d]
IC50 (hCA II): 21 nM
Ki (hCA II): 16.9 ± 3.76 nM
times more potent than AZA toward hCA II (hCA II; based on Ki values): 1.3 ×
IC50 (hCA I): 22.4 nM
Ki (hCA I): 9.16 ± 0.46 nM
times more potent than AZA toward hCA I (hCA I; based on Ki values): 3.3 ×

COc1ccc(/C=C(\NC(=O)c2ccccc2)C(=O)Nc2ccc(S(=O)(=O)Nc3ncccn3)cc2)cc1 [3e]
IC50 (hCA II): 25.7 nM
Ki (hCA II): 37.2 ± 7.55 nM
IC50 (hCA I): 25.7 nM
Ki (hCA I): 8.02 ± 0.88 nM
times more potent than AZA toward hCA I (hCA I; based on Ki values): 3.8 ×

COc1ccc(/C=C(\NC(=O)c2ccccc2)C(=O)Nc2ccc(S(=O)(=O)Nc3nccc(C)n3)cc2)cc1 [3f]
IC50 (hCA II): 24.8 nM
Ki (hCA II): 21.4 ± 3.47 nM
IC50 (hCA I): 28.9 nM
Ki (hCA I): 11.3 ± 1.7 nM
times more potent than AZA toward hCA I (hCA I; based on Ki values): 2.7 ×
times more potent than 3e on AChE (AChE): 3.8 ×
times more potent than 3g on AChE (AChE): 1.5 ×

COc1ccc(/C=C(\NC(=O)c2ccccc2)C(=O)Nc2ccc(S(=O)(=O)Nc3nc(C)cc(C)n3)cc2)cc1 [3g]
IC50 (hCA II): 26.7 nM
Ki (hCA II): 14.9 ± 3.1 nM
times more potent than AZA toward hCA II (hCA II; based on Ki values): 1.5 ×
IC50 (hCA I): 21 nM
Ki (hCA I): 4.07 ± 0.38 nM
times more potent than 3e on hCA I (hCA I; based on Ki values): 2 ×
times more potent than AZA toward hCA I (hCA I; based on Ki values): 7.5 ×
times more potent than compound 2 on hCA I (hCA I; based on Ki values): 12.4 ×

COc1ccc(C=C2N=C(c3ccccc3)OC2=O)cc1 [compound 2, 4-(4-methoxybenzylidene)-2-phenyloxazol-5(4H)-one]
IC50 (hCA II): 46.2 nM
Ki (hCA II): 62.5 ± 11.5 nM
IC50 (hCA I): 40.8 nM
Ki (hCA I): 50.3 ± 1.59 nM
